The results in this text go back to patent US20080221086A1, “Novel Inhibitors of Glutaminyl Cyclase” (PROBIODRUG AG, priority 2006, published 2008).

Each structure is given as a SMILES string.

What is called IC50 is the concentration at which inhibition is half-maximal.

For the first assay, the target named is hQC (Homo sapiens, UniProt Q16769). Briefly: Fluorometric assay of glutaminyl cyclase (QC) inhibition, H-Gln-βNA or H-Gln-AMC substrate. The settings on record: compound from preparative synthesis, purified by chromatography; fluorescent assay; read-out: IC50 hQC. The assay is classed as biochemical. The procedure, abridged: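 Fluorometric coupled assays at 30° C in Tris/HCl pH 8.0 with EDTA and pyroglutamyl aminopeptidase used either 0.2 mM H-Gln-βNA (320/410 nm) or H-Gln-AMC (380/460 nm), started by QC. Screening used 4 mM inhibitor at substrate 1 KM. Ki came from fitting progress curves to competitive inhibition.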
Chain of hQC (Q16769 29-361): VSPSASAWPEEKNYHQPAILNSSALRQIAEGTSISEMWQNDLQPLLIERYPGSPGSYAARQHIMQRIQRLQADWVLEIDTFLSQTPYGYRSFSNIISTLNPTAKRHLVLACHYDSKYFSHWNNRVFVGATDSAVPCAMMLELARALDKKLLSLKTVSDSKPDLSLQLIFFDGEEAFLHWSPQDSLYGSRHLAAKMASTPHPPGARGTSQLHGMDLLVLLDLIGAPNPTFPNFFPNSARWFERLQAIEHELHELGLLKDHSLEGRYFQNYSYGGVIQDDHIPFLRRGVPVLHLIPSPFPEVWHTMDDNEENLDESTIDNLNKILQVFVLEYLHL
`O=C1N/C(=N/CCc2c[nH]c3ccccc23)C(c2ccccc2F)N1CCCn1ccnc1` (centres unmarked) [Compound 61, 5-(2-Fluoro-phenyl)-1-(3-imidazol-1-yl-propyl)-4-(2-(1H-indol-3-yl)-ethylimino)-imidazolidin-2-one]: the concentration for half-maximal inhibition (IC50) stood at 0.452 µM.
Still for that read-out and setting: the result for `O=C1CCCN1CCC/N=C1/NC(=O)N(c2ccc3[nH]cnc3c2)C1c1ccc2c(c1)OCO2` (centres unmarked) [Compound 168, 5-Benzo[1,3]dioxol-5-yl-1-(1H-benzoimidazol-5-yl)-4-(3-(2-oxo-pyrrolidin-1-yl)-propylimino)-imidazolidin-2-one] reads 0.0274 µM.

Still in this assay, the particulars now being: read-out: IC50.
On to `CCc1ccccc1C1/C(=N/C2CCCc3ccccc32)NC(=O)N1c1ccc2[nH]cnc2c1` (centres unmarked) [Compound 160, 1-(1H-Benzoimidazol-5-yl)-5-(2-ethyl-phenyl)-4-1,2,3,4-tetrahydro-naphthalen-1-ylimino-imidazolidin-2-one], for which the 50% inhibitory concentration (IC50) stood at 2.2 µM.
Same read-out and setting: the result for `O=C1N/C(=N/CCc2c[nH]c3ccccc23)C(CO)N1CCCn1ccnc1` (centres unmarked) [Compound 56, 5-Hydroxymethyl-1-(3-imidazol-1-yl-propyl)-4-2-(1H-indol-3-yl)-ethylimino-imidazolidin-2-one] reads 8.5 µM.
`O=C1N/C(=N/CCc2c[nH]c3ccccc23)C(c2ccc[nH]2)N1CCCn1ccnc1` (centres unmarked) [Compound 50, 1-(3-Imidazol-1-yl-propyl)-4-2-(1H-indol-3-yl)-ethylimino-5-(1H-pyrrol-2-yl)-imidazolidin-2-one]: the IC50 came out at 6.7 µM.
The same measure, in the same setting: the result for `O=C1N/C(=N/C2CC2)C(c2ccc(Br)cc2)N1c1ccc2nc[nH]c2c1` (centres unmarked) [Compound 310, 1-(3H-Benzoimidazol-5-yl)-5-(4-bromo-phenyl)-4-cyclopropylimino-imidazolidin-2-one] reads 0.4 µM; that for `O=C1CCCN1CCC/N=C1\NC(=S)N(c2ccc3[nH]cnc3c2)C1c1cc2ccccc2s1` (centres unmarked) [Compound 252, 1-(3-(5-(benzo[b]thiophen-2-yl)-1-(1H-benzo[d]imidazol-5-yl)-2-thioxoimidazolidin-4-ylideneamino)propyl)pyrrolidin-2-one], 7.6 µM; that for `CC1=CC(C)C(C2/C(=N/c3ccc4c(c3)OCCO4)NC(=S)N2c2ccc3[nH]cnc3c2)CC1` (centres unmarked) [Compound 330, 1-(1H-Benzoimidazol-5-yl)-4-2,3-dihydro-benzo1,4dioxin-6-ylimino-5-(2,4-dimethyl-cyclohex-3-enyl)-imidazolidine-2-thione], 9.4 µM.
On the same count and under the same terms, the result for `O=C(C/N=C1\NC(=O)N(c2ccc3nc[nH]c3c2)C1c1c(F)ccc(Cl)c1F)N1CCCCC1` (centres unmarked) [Compound 250, 1-(3H-Benzoimidazol-5-yl)-5-(3-chloro-2,6-difluoro-phenyl)-4-2-oxo-2-piperidin-1-yl-ethylimino-imidazolidin-2-one] reads 4.9 µM.
Consider `O=C1N/C(=N\Cc2ccccc2)C(c2ccccc2F)N1CCCn1ccnc1` (centres unmarked) [Compound 98, 4-Benzylimino-5-(2-fluoro-phenyl)-1-(3-imidazol-1-yl-propyl)-imidazolidin-2-one], for which the concentration for half-maximal inhibition (IC50) stood at 5.8 µM.
Same read-out and setting: the result for `CC1=CC(C)C(C2/C(=N/C3CCc4ccccc43)NC(=S)N2c2ccc3[nH]cnc3c2)CC1` (centres unmarked) [Compound 273, 1-(1H-Benzoimidazol-5-yl)-5-(2,4-dimethyl-cyclohex-3-enyl)-4-indan-1-ylimino-imidazolidine-2-thione] reads 7.6 µM; that for `O=C(C/N=C1\NC(=S)N(c2ccc3[nH]cnc3c2)C1c1ccccc1C(F)(F)F)N1CCCCC1` (centres unmarked) [Compound 144, 2-1-(1H-Benzoimidazol-5-yl)-2-thioxo-5-(2-trifluoromethyl-phenyl)-imidazolidin-(4Z)-ylideneamino-1-piperidin-1-yl-ethanone], 1.3 µM; that for `S=C1N/C(=N/CCc2cccs2)C(c2cc3ccccc3s2)N1c1ccc2[nH]cnc2c1` (centres unmarked) [Compound 260, 5-Benzobthiophen-2-yl-1-(1H-benzoimidazol-5-yl)-4-2-thiophen-2-yl-ethylimino-imidazolidine-2-thione], 3.1 µM.
Same read-out and setting: the result for `Cc1cccc(C2C(=NCCc3c[nH]c4ccccc34)NC(=O)N2CCCn2ccnc2)c1O` (centres unmarked) [Compound 46, 5-(2-Hydroxy-3-methyl-phenyl)-1-(3-imidazol-1-yl-propyl)-4-2-(1H-indol-3-yl)-ethylimino-imidazolidin-2-one] reads 2.2 µM.
Turning to `O=C1N/C(=N/CCc2c[nH]c3ccccc23)C(c2ccccc2F)N1CCCn1ccnc1` (centres unmarked) [Compound 61, 5-(2-Fluoro-phenyl)-1-(3-imidazol-1-yl-propyl)-4-(2-(1H-indol-3-yl)-ethylimino)-imidazolidin-2-one], the half-inhibitory concentration (IC50) stood at 2.2 µM.
Same read-out and setting: the result for `COC(=O)C(C)/N=C1/NC(=S)N(c2ccc3[nH]cnc3c2)C1c1c(F)ccc(Cl)c1F` (centres unmarked) [Compound 268, Methyl 2-(1-(1H-benzo[d]imidazol-5-yl)-5-(3-chloro-2,6-difluorophenyl)-2-thioxoimidazolidin-4-ylideneamino)propanoate] reads 9.4 µM; that for `O=C1N/C(=N/Cc2ccccc2)C(c2cc(F)cc(F)c2)N1CCCn1ccnc1` (centres unmarked) [Compound 95, 4-Benzylimino-5-(3,5-difluoro-phenyl)-1-(3-imidazol-1-yl-propyl)-imidazolidin-2-one], 5.8 µM.
Still for that read-out and setting: the result for `Cc1ccc(C2/C(=N\c3cccc(C#N)c3)NC(=S)N2c2ccc3[nH]cnc3c2)c(C)c1` (centres unmarked) [Compound 140, 3-(1-(1H-benzo[d]imidazol-5-yl)-5-(2,4-dimethylphenyl)-2-thioxoimidazolidin-4-ylideneamino)benzo-nitrile] reads 8.5 µM; that for `CC1=CC(C)C(C2/C(=N/C(C)C(C)(C)C)NC(=S)N2c2ccc3nc[nH]c3c2)CC1` (centres unmarked) [Compound 276, 1-(1H-Benzoimidazol-5-yl)-5-(2,4-dimethyl-cyclohex-3-enyl)-4-1,2,2-trimethyl-propylimino-imidazolidine-2-thione], 7.6 µM; that for `O=C1N/C(=N\C2CCCCC2)C(c2ccc(Cl)c(F)c2)N1CCCn1ccnc1` (centres unmarked) [Compound 5, 5-(4-Chloro-3-fluoro-phenyl)-4-cyclohexylimino-1-(3-imidazol-1-yl-propyl)-imidazolidin-2-one], 7 µM.
Turning to `Cc1nc[nH]c1C1/C(=N/C2CCc3ccccc32)NC(=O)N1c1ccc2nc[nH]c2c1` (centres unmarked) [Compound 257, 3-(3H-Benzoimidazol-5-yl)-5-indan-1-ylimino-5′-methyl-1,3,4,5-tetrahydro-3′H-4,4′biimidazolyl-2-one], the IC50 came to 0.4 µM.
With `CSc1ccc(C2C(=NCn3nnc4ccccc43)NC(=O)N2c2ccc3[nH]cnc3c2)cc1` (centres unmarked) [Compound 181, 1-(1H-Benzoimidazol-5-yl)-4-benzotriazol-1-ylmethylimino-5-(4-methylsulfanyl-phenyl)-imidazolidin-2-one], the half-inhibitory concentration (IC50) was found to be 1.3 µM.
Turning to `CCCCC1/C(=N\C2CCCCC2)NC(=O)N1CCCn1ccnc1` (centres unmarked) [Compound 7, 5-Butyl-4-cyclohexylimino-1-(3-imidazol-1-yl-propyl)-imidazolidin-2-one], the IC50 came to 9.1 µM.
`O=C1N/C(=N\c2ccc3c(c2)OCCO3)C(c2ccc(Cl)c(F)c2)N1CCCn1ccnc1` (centres unmarked) [Compound 33, 5-(4-Chloro-3-fluoro-phenyl)-4-2,3-dihydro-benzo1,4dioxin-6-ylimino-1-(3-imidazol-1-yl-propyl)-imidazolidin-2-one]: the half-maximal inhibitory concentration (IC50) stood at 4.9 µM.
On the same count and under the same terms, the result for `O=C(C/N=C1\NC(=S)N(c2ccc3nc[nH]c3c2)C1c1cc(Br)cs1)N1CCc2ccccc2C1` (centres unmarked) [Compound 182, 2-(1-(1H-benzo[d]imidazol-6-yl)-5-(4-bromothiophen-2-yl)-2-thioxoimidazolidin-4-ylideneamino)-1-(3,4-dihydroisoquinolin-2(1H)-yl)ethanone] reads 1.3 µM; that for `O=C(C/N=C1\NC(=O)N(CCCn2ccnc2)C1c1ccccc1F)N1CCc2ccccc2C1` (centres unmarked) [Compound 76, 4-2-(3,4-Dihydro-1H-isoquinolin-2-yl)-2-oxo-ethylimino-5-(2-fluoro-phenyl)-1-(3-imidazol-1-yl-propyl)-imidazolidin-2-one], 5.8 µM; that for `O=C1N/C(=N/CCc2cccs2)C(c2cc3c(cc2Br)OCO3)N1c1ccc2nc[nH]c2c1` (centres unmarked) [Compound 314, 1-(3H-Benzoimidazol-5-yl)-5-(6-bromo-benzo1,3dioxol-5-yl)-4-2-thiophen-2-yl-ethylimino-imidazolidin-2-one], 0.004 µM.
On the same count and under the same terms, the result for `O=C1N/C(=N\Cc2ccc(Cl)cc2)C(c2ccccc2F)N1CCCn1ccnc1` (centres unmarked) [Compound 23] reads 4 µM; that for `CCc1ccccc1/N=C1\NC(=S)N(c2ccc3[nH]cnc3c2)C1c1ccccc1` (centres unmarked) [Compound 317, 1-(1H-Benzoimidazol-5-yl)-4-2-ethyl-phenylimino-5-phenyl-imidazolidine-2-thione], 9.4 µM.
Same read-out and setting: the result for `C/N=C1/NC(=O)N(c2ccc3[nH]cnc3c2)C1c1ccc(N2CCCC2)cc1` (centres unmarked) [Compound 269, 1-(1H-Benzoimidazol-5-yl)-4-methylimino-5-(4-pyrrolidin-1-yl-phenyl)-imidazolidin-2-one] reads 3.1 µM; that for `S=C1N/C(=N/Cc2ccccc2)C(c2ccc(Cl)cc2)N1c1ccc2[nH]cnc2c1` (centres unmarked) [Compound 251, 1-(1H-Benzoimidazol-5-yl)-4-benzylimino-5-(4-chloro-phenyl)-imidazolidine-2-thione], 4 µM.
As for `O=C1CCCN1CCC/N=C1/NC(=O)N(c2ccc3[nH]cnc3c2)C1c1ccc2c(c1)OCO2` (centres unmarked) [Compound 168, 5-Benzo[1,3]dioxol-5-yl-1-(1H-benzoimidazol-5-yl)-4-(3-(2-oxo-pyrrolidin-1-yl)-propylimino)-imidazolidin-2-one], the half-maximal inhibitory concentration (IC50) turned out to be 0.004 µM.
Same read-out and setting: the result for `CC(C)(C)CC(C)(C)/N=C1\CN(c2ccc3nc[nH]c3c2)C(=S)N1` [Compound 286, 1-(3H-Benzoimidazol-5-yl)-4-1,1,3,3-tetramethyl-butylimino-imidazolidine-2-thione] reads 5.8 µM; that for `CC1=CC(C)C(C2/C(=N/CCCN3CCCC3=O)NC(=O)N2c2ccc3[nH]cnc3c2)CC1` (centres unmarked) [Compound 275, 1-(1H-Benzoimidazol-5-yl)-5-(2,4-dimethyl-cyclohex-3-enyl)-4-3-(2-oxo-pyrrolidin-1-yl)-propylimino-imidazolidin-2-one], 4 µM.
On to `O=C1CCCN1CCC/N=C1/NC(=O)N(c2ccc3[nH]cnc3c2)C1c1ccc2nsnc2c1` (centres unmarked) [Compound 155, 1-(1H-Benzoimidazol-5-yl)-5-benzo[c][1,2,5]thiadiazol-5-yl-4-3-(2-oxo-pyrrolidin-1-yl)-propylimino-imidazolidin-2-one], for which the IC50 came out at 0.004 µM.
